Data reported in patent publication US8987274B2, “Macrocycles that increase p53 activity and the uses thereof” (Merck Sharp & Dohme Corp, priority 2011, dated 2015).
Like-named read-outs stand apart in the source and are kept apart here.

Tests used:
SJSA = experiment: Cell Viability Assay (CellTiter-Glo, ATP quantitation); format: cell-based; settings: second value of the cell (SJSA cell viability, e.g. 72 hours), read-out: FP/ SJSA IC50 (nM): SJSA IC50
Experimental: Additionally, compounds were tested for activity at the HDM2 protein using the Cell Viability Assay, which measures the number of viable cells in culture after treatment with the inventive compound for a certain period of time e.g. 72 hours based on quantitation of the ATP present (Cell Viability. IC50). [CellTiter-Glo® Luminescent Cell Viability Assay from Promega].

HDM2 protein = HDM2 protein (Homo sapiens, UniProt Q00987); experiment: fluorescence polarization screening assay (FP IC50); format: binding; settings: first value of the cell (FP), read-out: FP/ SJSA IC50 (nM): FP IC50
Sequence of HDM2 protein (Q00987 whole entry): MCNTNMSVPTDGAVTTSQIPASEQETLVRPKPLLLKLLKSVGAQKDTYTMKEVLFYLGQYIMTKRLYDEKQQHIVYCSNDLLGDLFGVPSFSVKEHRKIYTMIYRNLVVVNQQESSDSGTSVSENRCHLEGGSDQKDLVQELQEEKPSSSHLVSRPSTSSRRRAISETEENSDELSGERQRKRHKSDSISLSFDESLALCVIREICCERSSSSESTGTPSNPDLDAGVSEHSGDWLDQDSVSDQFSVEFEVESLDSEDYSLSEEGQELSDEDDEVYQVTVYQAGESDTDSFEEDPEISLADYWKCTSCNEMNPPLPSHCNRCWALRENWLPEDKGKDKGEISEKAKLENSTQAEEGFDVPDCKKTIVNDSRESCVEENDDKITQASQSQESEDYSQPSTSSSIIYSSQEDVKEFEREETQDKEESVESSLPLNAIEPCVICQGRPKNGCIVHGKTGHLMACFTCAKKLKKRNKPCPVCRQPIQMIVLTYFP
Experimental: The compounds were evaluated to determine activity at the HDM2 protein by known methods such as the fluorescence polarization screening assay that measures the inhibitory concentration that achieves 50% of maximal activity (FP IC50) and the dissociation constant for inhibitor binding (FP Ki). [Zhang et al., J. Analytical Biochemistry 331: 138-146 (2004)].

SMILES	IC50 (SJSA; class symbol) [nM]	IC50 (HDM2 protein; class symbol) [nM]	IC50 (SJSA; number) [nM]	IC50 (HDM2 protein; number) [nM]
COCCOc1ccccc1N1CCN(C(=O)[C@]2(Oc3csc(C(F)(F)F)c3)CCCN3C(=O)c4c(C(F)(F)F)ccnc4OCC/C=C/C[C@@H]32)CC1 [Compound 1, 1-[2-(2- METHOXYETHOXY) PHENYL]-4-[[(10aR)- 6,7,10,10a,11,12,13,14- OCTAHYDRO-16- OXO-1- (TRIFLUOROMETHYL)- 11(S)-[[5- (TRIFLUOROMETHYL)- 3-THIENYL]OXY]-16H- DIPYRIDO[1,2-e:2′3′-b][1,5] OXOAAZACYCLOUNDECIN- 11-YL]CARBONYL] PIPERAZINE.]	101 to 500	1 to 100		
O=C1c2c(C(F)(F)F)ccnc2OCC/C=C/C[C@H]2N1CCC[C@@]2(Oc1csc(C(F)(F)F)c1)C(=O)N1CCN(c2ccccc2OCCO)CC1 [Compound 2, 1-[2-(2- HYDROXYETHOXY) PHENYL]-4-[[(10aR)- 6,7,10,10a,11,12,13,14- OCTAHYDRO-16- OXO-1- (TRIFLUOROMETHYL)- 11(S)-[[5- (TRIFLUOROMETHYL)-3- THIENYL]OXY]-16H- PYRIDO[1,2-e:2′,3′-b][1,5] OXAAZACYCLOUNDECIN- 11-YL]CARBONYL] PIPERAZINE.]	501 to 1000	1 to 100		
COCCOc1ccccc1N1CCN(C(=O)[C@]2(Oc3csc(C(F)(F)F)c3)CCCN3C(=O)c4c(C(F)(F)F)ccnc4OCCCC/C=C/C[C@@H]32)CC1 [Compound 3, 1-[[(12aR)- 6,7,8,9,12,12a,13,14,15,16- DECAHYDRO-18-OXO-1- (TRIFLUOROMETHYL)- 13(S)-[[5- (TRIFLUOROMETHYL)-3- THIENYL]OXY]-18H- DIPYRIDO[1,2-e:2′,3′-b][1,5] OXAAZACYCLOTRIDECIN- 13-YL]CARBONYL]-4- [2-(2-METHOXYETHOXY) PHENYL]PIPERAZINE.]	1000 to 3000	1 to 100		
O=C1c2c(C(F)(F)F)ccnc2OCCC/C=C\C[C@H]2N1CCC[C@@]2(Oc1csc(C(F)(F)F)c1)C(=O)N1CCN(c2ccccc2OCCO)CC1 [Compound 4, 1-[2-(2- HYDROXYETHOXY) PHENYL]-4-[[(11aR)- 7,8,11,11a,12,13,14,15- OCTAHYDRO-17-OXO-1- (TRIFLUOROMETHYL)- 12(S)-[[5- (TRIFLUOROMETHYL)-3- THIENYL]OXY]-6H,17H- DIPYRIDO[1,2-e:2′,3′-b][1,5] OXAAZACYCLODODECIN- 12-YL]CARBONYL] PIPERAZINE.]	501 to 1000	1 to 100		
O=C1c2c(C(F)(F)F)ccnc2OCCCCCC[C@H]2N1CCC[C@@]2(Oc1csc(C(F)(F)F)c1)C(=O)N1CCN(c2ccccc2OCCO)CC1 [Compound 5, 1-[[(11aR)- 7,8,9,10,11,11a,12,13,14,15- DECAHYDRO-17-OXO-1- (TRIFLUOROMETHYL)- 12-[[5- (TRIFLUOROMETHYL)-3- THIENYL]OXY]-6H,17H- DIPYDRIDO[1,2-e:2′,3′-b][1,5] OXAAZACYCLODODECIN- 12(S)-YL]CARBONYL]-4- [2-(2-HYDROXYETHOXY) PHENYL]PIPERAZINE.]	1000 to 3000	1 to 100		
O=C1c2c(C(F)(F)F)ccnc2OCCCC/C=C\C[C@H]2N1CCC[C@@]2(Oc1csc(C(F)(F)F)c1)C(=O)N1CCN(c2ccccc2OCCO)CC1 [Compound 6, 1-[[(12aR)- 6,7,8,9,12,12a,13,14,15,16- DECAHYDRO-18-OXO-1- (TRIFLUOROMETHYL)- 13-[[5- (TRIFLUOROMETHYL)-3- THIENYL]OXY]-18H- DIPYDRIDO[1,2-e:2′,3′-b][1,5] OXAAZACYCLOTRIDECIN- 13(S)-YL]CARBONYL]-4- [2-(2-HYDROXYETHOXY) PHENYL]PIPERAZINE.]			642	20
O=C1c2c(C(F)(F)F)ccnc2OCCCCCCC[C@H]2N1CCC[C@@]2(Oc1csc(C(F)(F)F)c1)C(=O)N1CCN(c2ccccc2OCCO)CC1 [Compound 7, 1-[[(12aR)-6,7,8,9,10,11,12,12a, 13,14,15,16-DODECAHYDRO- 18-OXO-1- (TRIFLUOROMETHYL)- 13(S)-[[5- (TRIFLUOROMETHYL)-3- THIENYL]OXY]-18H- DIPYRIDO[1,2-e:2′,3′-b][1,5] OXAAZACYCLOTRIDECIN- 13-YL]CARBONYL]-4- [2-(2- HYDROXYETHOXY) PHENYL]PIPERAZINE.]		1 to 100		
O=C(O)CCCOc1ccccc1N1CCN(C(=O)[C@]2(Oc3csc(C(F)(F)F)c3)CCCN3C(=O)c4c(C(F)(F)F)ccnc4OCCC/C=C\C[C@@H]32)CC1 [Compound 8, 4-[2-[4-[[(11aR)- 7,8,11,11a,12,13,14,15- OCTAHYDRO-17-OXO-1- (TRIFLUOROMETHYL)- 12(S)-[[5- (TRIFLUOROMETHYL)-3- THIENYL]OXY]-6H,17H- DIPYRIDO[1,2-e:2′,3′-b][1,5] OXAAZACYCLODODECIN- 12-YL]CARBONYL]-1- PIPERAZINYL]PHENOXY] BUTANOIC ACID.]	101 to 500	1 to 100		
O=C1c2c(C(F)(F)F)ccnc2OCCCC[C@H]2N1CCC[C@@]2(Oc1csc(C(F)(F)F)c1)C(=O)N1CCN(c2ccccc2OCCO)CC1 [Compound 9, 1-[2-(2- HYDROXYETHOXY) PHENYL]-4-[[(9aR)- 7,8,9,9a,10,11,12,13- OCTAHYDRO-15-OXO-1- (TRIFLUOROMETHYL)- 10(S)-[[5- (TRIFLUOROMETHYL)- 3-THIENYL]OXY]-6H,15H- DIPYRIDO[1,2-e:2′,3′-b][1,5] OXAZECIN-10-YL] CARBONYL]PIPERAZINE.]		1000 to 3000		
N#CC1(c2ccccc2OCCCC2(C(=O)O)CCC2)CCN(C(=O)[C@]2(Oc3csc(C(F)(F)F)c3)CCCN3C(=O)c4c(C(F)(F)F)ccnc4OCCCCCC[C@@H]32)CC1 [Compound 13, 1-[3-[2-[4-CYANO-1- [[(11a)-7,8,9,10,11,11a,12,13, 14,15-DECAHYDRO-17- OXO-1- (TRIFLUOROMETHYL)- 12(S)-[[5- (TRIFLUOROMETHYL)-3- THIENYL]OXY]-6H,17H- DIPYRIDO[1,2-e:2′,3′-b][1,5] OXAAZACYCLODODECIN- 12YL]CARBONYL]-4- PIPERIDINYL]PHENOXY] PROPYL]CYCLOBUTANE- CARBOXYLIC ACID.]	101 to 500	1 to 100		
